Tests used:
[1] = test system: B16F10-Cas9 cells co-cultured with Pmel-1 T cells; experiment: Genome-scale CRISPR-Cas9 screen, selection with Pmel-1 T cells; format: cell-based, mouse; conditions: for Pmel+ (sgRNA Log(2) fold change, Pmel-1 selection versus control T cells): Table 3, B16F10-Cas9 cells pre-treated with IFNγ, co-cultured with Pmel-1 T cells 1:1 for three days, negative = depleted, positive = enriched; for logFC: Log(2) fold change of gRNAs per gene, genes depleted in Pmel-1 screen
[2] = test system: B16F10-Cas9 cells pulsed with SIINFEKL peptide, co-cultured with OT-I T cells; experiment: Genome-scale CRISPR-Cas9 screen, selection with OT-I T cells; format: cell-based, mouse; conditions: for OT1 (sgRNA Log(2) fold change, OT-I selection versus control T cells): Table 3, B16F10-Cas9 cells pulsed with SIINFEKL, co-cultured with OT-I T cells 1:1 for one day, negative = depleted, positive = enriched; for logFC: Log2 fold change of gRNAs per gene, OT-I screen, genes depleted (FDR < 0.05)

Substance | Pmel+ (sgRNA Log(2) fold change, Pmel-1 selection versus control T cells) [1] | OT1 (sgRNA Log(2) fold change, OT-I selection versus control T cells) [2] | logFC [1] | logFC [2]
AAAAATTCAACGTTGAAACA (chemistry not fully specified) | -3.43 | -1.37 | – | –
AAAACGGTCTCAAGCCAATG (chemistry not fully specified) | 1.05 | -3.05 | – | –
AAACAAGAGCACACTCCCCG (chemistry not fully specified) | 1.49 | -2.06 | – | –
AAACATATAGTGTACCTCTA (chemistry not fully specified) | 10.21 | 2.36 | – | –
AACTTCAGTAGCGGGCGACG (chemistry not fully specified) | 0.00 | -2.23 | – | –
AAGACATATAGTTATCAGCA (chemistry not fully specified) | -1.83 | -2.22 | – | –
AAGGGCCACTTACAATTAGG (chemistry not fully specified) | 2.10 | -0.44 | – | –
AAGTCCTAGATAAAGCACAT (chemistry not fully specified) | 3.43 | 3.13 | – | –
AATGCTGACGACTTTCAATG (chemistry not fully specified) | 0.00 | -2.31 | – | –
ACACAACGCTAAGACAGTCG (chemistry not fully specified) | -0.22 | -3.60 | – | –
ACAGATACGGAGTGTCCCGT (chemistry not fully specified) | 1.90 | 2.85 | – | –
ACAGCCTCCCAATATCTCAG (chemistry not fully specified) | -0.54 | -3.56 | – | –
ACAGGGAAAGCATGGGACAC (chemistry not fully specified) | 0.76 | -2.35 | – | –
ACATTGATACGCACACTCAC (chemistry not fully specified) | 1.41 | -2.37 | – | –
ACCTCCGAATGATCAATGGG (chemistry not fully specified) | -0.84 | -2.52 | – | –
ACGACGAGGAGTTCGAATAC (chemistry not fully specified) | -0.86 | -2.76 | – | –
ACGCAATGAAAAGGTTTAGG (chemistry not fully specified) | 2.19 | -2.24 | – | –
ACTAATGGACTCGCACACGT (chemistry not fully specified) | 2.09 | -0.42 | – | –
ACTCACTCTGGATAGCATAC (chemistry not fully specified) | 3.80 | 5.27 | – | –
ACTCGTACAGCTCCTGTGGT (chemistry not fully specified) | 2.62 | 0.67 | – | –
ACTTCAAAGTCCATGGCACA (chemistry not fully specified) | -0.63 | -2.45 | – | –
ACTTCTGATTGGCGATTCTG (chemistry not fully specified) | -2.49 | -3.78 | – | –
AGAAGCCACTCGGACTACTG (chemistry not fully specified) | 2.77 | -0.30 | – | –
AGAAGGCAGGCAGAGTGGTG (chemistry not fully specified) | -0.75 | -2.13 | – | –
AGAGATCTGCGCCATTTAAG (chemistry not fully specified) | -0.91 | -3.28 | – | –
AGATTGTCAACAATGGAACT (chemistry not fully specified) | 0.00 | -2.17 | – | –
AGCGTATAATCTTCGATCAG (chemistry not fully specified) | 1.35 | -2.46 | – | –

Substance | Pmel+ (sgRNA Log(2) fold change, Pmel-1 selection versus control T cells) [1] | OT1 (sgRNA Log(2) fold change, OT-I selection versus control T cells) [2] | logFC [1] | logFC [2]
AGGGAACCTCACTTCCAAGT (chemistry not fully specified) | 4.83 | 3.12 | – | –
AGGTCACAATGTACCAACCC (chemistry not fully specified) | -2.61 | -1.71 | – | –
AGTTGGATCGCGAATAAAGA (chemistry not fully specified) | -2.35 | -2.70 | – | –
AGTTTGGAGCCCAGTAGGCA (chemistry not fully specified) | -2.19 | -2.77 | – | –
ATACACAACTATGATGCCAT (chemistry not fully specified) | 5.64 | -1.48 | – | –
ATAGAAATCTGACACTGCCG (chemistry not fully specified) | 0.00 | -2.12 | – | –
ATAGCACCAAAGCCTAACAA (chemistry not fully specified) | 0.00 | -2.27 | – | –
ATCACCTGGAGCATGCAGGA (chemistry not fully specified) | 2.72 | -0.29 | – | –
ATGAGGTACAGCAGAAAGGT (chemistry not fully specified) | 0.90 | -2.05 | – | –
ATGCAGATAATCCGCCAAAG (chemistry not fully specified) | 0.00 | -2.49 | – | –
ATGGGATTGATCGTTACTGG (chemistry not fully specified) | 0.00 | -2.32 | – | –
ATGTTGCCATCGTCACTGCA (chemistry not fully specified) | 3.04 | 0.41 | – | –
ATTTCAAGAGATTCTATGCT (chemistry not fully specified) | 1.73 | -2.59 | – | –
ATTTGGATTTCAATGTGAGG (chemistry not fully specified) | 3.20 | 5.19 | – | –
CAAAGTCTGCTGTCCGACCT (chemistry not fully specified) | 2.57 | 0.41 | – | –
CAAGAGCCAGACCTTGGATG (chemistry not fully specified) | 0.41 | -2.86 | – | –
CAATAATGCTGGTCTACGTG (chemistry not fully specified) | 2.58 | 0.89 | – | –
CACACCCTTACTGCCCGTCG (chemistry not fully specified) | -1.34 | -2.48 | – | –
CACCGGATCGTCCAATTCCG (chemistry not fully specified) | -0.88 | -2.82 | – | –
CACTGCGAGACCAATCTAGA (chemistry not fully specified) | 2.24 | 1.44 | – | –
Cd36 (guide TAGGATATGGAACCAAACTG; chemistry not fully specified) | – | – | −2.18 | –
Chic2 (guide GCTCAAGTACTCGCCCGACC; chemistry not fully specified) | – | – | – | −2.09
Ctps | – | – | – | −1.69
Mrps21 (guide GCGTCGTCGACTTATGACTT; chemistry not fully specified) | – | – | – | −2.09
Nudcd2 (guide GGTTCCTTGCGGGACTCCGT; chemistry not fully specified) | – | – | – | −2.09
Sepsecs (guide CACCGGATCGTCCAATTCCG; chemistry not fully specified) | – | – | – | −2.62
Tial1 (guide AATGCAATTGTGCATATGGG; chemistry not fully specified) | – | – | −2.01 | –
